“Also recorded” adds a separate entry of the source.
How the values were obtained:
[1] = system: Vγ9/Vδ2; details: cited from earlier work
[2] = system: Vγ2Vδ2 T cells; experiment: In vitro HMBPP response of rhesus monkey PBMC; format: cell-based; details: PBMC stimulated with 100 nM HMBPP
Source text: FIG. 7. Characteristics of rhesus monkey Vγ2Vδ2 T cells. (A). Large in vitro HMBPP responses by Vγ2Vδ2 T cells from most rhesus monkeys. […] (B). Uniform memory subset distribution of rhesus monkey Vγ2Vδ2 T cells. PBMC from 22 monkeys were stained for Vδ2, […], and […]. Vδ2^+ cells were divided in 4 groups based on their expression of CD28 and CD27.
Memory subset distribution and HMBPP response of rhesus monkey Vγ2Vδ2 T cells—In preparation for in vivo immunization of rhesus monkey, we screened 33 monkeys for their ability to respond to HMBPP in vitro, γδ T cells levels, V gene expression, and memory subset distribution. […] Like human Vγ2Vδ2 T cells, monkey Vγ2Vδ2 T cells also could be divided into 4 subsets based on expression of CD28 and CD27 (TEarly=central memory=CD28^+27^+, TEarly CD27−=CD28^+27^−, TIntermediate=CD28^−27^+, and TLate CD45RA+=CD28^−27^−). However, unlike human donors, there were very few monkeys with a predominance of the TLate RA subset. Moreover, whereas Vγ2Vδ2 T cells constituted 73% of human adult γδ T cells, Vγ2Vδ2 T cells constituted only 29% of monkey γδ T cells consistent with our earlier study. […]

[3] = system: Vγ2Vδ2 TCR transfectant, DBS43; experiment: IL-2 release by Vγ2Vδ2 TCR transfectant DBS43; format: cell-based; details: unpublished data
[4] = system: Vγ2Vδ2 T cells; experiment: Immunization of rhesus monkeys with zoledronate and HMBPP plus sc IL-2; format: in vivo, rhesus monkey; details: for in vitro reactivity of PBMC to HMBPP after immunization: PBMC before and ~2 weeks after each immunization, cultured with HMBPP 9 days; for outcome of repeated immunization in vivo: zoledronate 0.06 mg/kg sc or iv twice, then HMBPP 70 mg/kg iv, sc IL-2

In the case of `CC(O)(CBr)CCOP(=O)(O)OP(=O)(O)O` (centres unmarked) [BrHPP, bromohydrin pyrophosphate], the “return of expansion to baseline” value ([1]; cynomolgus monkey, in vivo) is given as 10 to 15 days and the “expansion of Vγ9/Vδ2” value ([1]; first and successive infusions) is given as “transiently expand; also recorded: less vigorous expansions”.
For `C/C(=C\COP(=O)(O)OP(=O)(O)O)CO` [HMBPP, (E)-4-hydroxy-3-methyl-but-2-enyl pyrophosphate], the “monkeys with expansion to >40%” value [2] was 32/33, the IL-2 release [3] was “release IL-2 in response to HMBPP” and the “in vitro reactivity of PBMC to HMBPP after immunization” value [4] was “leads to loss of in vitro reactivity to HMBPP”. The “outcome of repeated immunization in vivo” value [4] was “leads to immune exhaustion”.
With `O=P(O)(O)C(O)(Cn1ccnc1)P(=O)(O)O` [zoledronate] the “in vitro reactivity of PBMC to HMBPP after immunization” value [4] was “leads to loss of in vitro reactivity to HMBPP” and the “outcome of repeated immunization in vivo” value [4] was “loss of in vivo (FIG. 8) and in vitro proliferation by Vγ2Vδ2 T cells to antigenic stimulation; also recorded: leads to immune exhaustion”.

Source: patent US8012466B2, “Immunogenic compositions for activating γδ T cells” (priority 2008, dated 2011)
